In patent US7855297B2, “Amide derivatives and medicinal use thereof” (Mitsubishi Tanabe Pharma Corporation, priority 2000, dated 2010):

Tests used:
C5a receptor = target: T1, C5a receptor (Homo sapiens, UniProt P21730); assay: C5a receptor binding assay ([125I]-human C5a, dcAMP-U937 cells); settings: [125I]-C5a 200 pM, 4° C., 2 hr, read-out: IC50 value, concentration at which binding of [125I]-human C5a is inhibited by 50%
T1 construct: U-937 cell was stimulated with 1 mM dibutyryl cyclic AMP (dcAMP, SIGMA) for 2 days to express the C5a receptor; endogenous in cells; host or cells: U-937 cells (human histiocytic lymphoma) differentiated with 1 mM dibutyryl cAMP for 2 days; whole cells, stored frozen and thawed before use
T1 sequence (P21730 1-350): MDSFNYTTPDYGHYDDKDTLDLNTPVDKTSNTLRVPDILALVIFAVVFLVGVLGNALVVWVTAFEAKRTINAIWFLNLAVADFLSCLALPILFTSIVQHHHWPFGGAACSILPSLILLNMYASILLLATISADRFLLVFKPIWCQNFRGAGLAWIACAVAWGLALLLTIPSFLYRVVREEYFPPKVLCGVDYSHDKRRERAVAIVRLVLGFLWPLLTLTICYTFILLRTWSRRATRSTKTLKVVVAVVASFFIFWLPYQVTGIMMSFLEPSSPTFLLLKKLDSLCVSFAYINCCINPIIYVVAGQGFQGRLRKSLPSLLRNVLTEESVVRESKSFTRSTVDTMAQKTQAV
Experimental: The C5a receptor binding inhibitory action of C5a and the test compound was evaluated by a receptor binding assay comprising reacting human cell line U-937 (human histiocytic lymphoma line), which expresses the C5a receptor, with [^125I]-human C5a (Amersham Pharmacia Biotech) in a MultiScreen (MILLIPORE). First, U-937 cell was stimulated with 1 mM dibutyryl cyclic AMP (dcAMP, SIGMA) for 2 days to express the C5a receptor (dcAMP-U937 cell), and suspended in a binding buffer [50 mM HEPES, 1 mM CaCl2, 5 mM MgCl2, 0.5% bovine albumin (BSA, SIGMA), 0.02% NaN3 (pH 7.2)] and stored at −80° C. […] After drying the MultiScreen, the radioactivity on the filter was measured using a gamma counter.
The rate (% inhibition) of inhibition of C5a binding by the test compound was calculated by the following formula using the count value obtained without addition of the test compound as Total, the count value obtained with addition of non-labeled C5a as Non, and the count value obtained with addition of the test compound as Test. % Inhibition=100−[(Test-Non)/(Total-Non)]×100 […]

[1] = system: C5a-stimulated neutrophil; assay: Migrating ability of C5a-stimulated neutrophil; assay type: cell-based; settings: 1.5 h, human neutrophils, C5a 100 pmol/L, 90 min, read-out: IC50 value, concentration at which migration of C5a-stimulated neutrophil is inhibited by 50%
Experimental: A neutrophil fraction was separately taken from human peripheral venous blood using Lympholyte-poly (Cedarlane) and suspended in RPMI 1640 medium (GIBCO BRL) supplemented with 0.1% bovine serum albumin (BSA). To. this neutrophil fraction (5×10^6 cells/mL) was added Calcein-AM (final concentration 5 μM, FUNAKOSHI), and the mixture was incubated at 37° C. for 30 min. The cells were washed by centrifugation and suspended to a concentration of 1×10^6 cells/mL. The migration was evaluated by adding neutrophils to chemotaxicell (pore size: 3 μm, KURABO) and measuring the neutrophils that migrated outside the chemotaxicell. First, 100 pmol/L of C5a solution was added to 24 well plate (500 μL/well) and chemotaxicell was set in the well. […] The fluorescent intensity of each well was measured by Cyto Fluor II (Ex: 485, Em: 530). The rate (% inhibition) of the inhibition of migration of C5a-stimulated neutrophil by the test compound was calculated by the following formula, wherein the fluorescence intensity of neutrophil that migrated by C5a stimulation without addition of the test compound is Max, the fluorescent intensity of neutrophil that migrated without addition of test compound and without C5a stimulation is Min, and the fluorescent intensity of neutrophil that migrated by C5a stimulation with the addition of the test compound is Test. % Inhibition=100−[(Test-Min)/(Max-Min)]×100 […]

IC50 (C5a receptor): 104 nM
IC50 [1]: 100 nM
Compound: CC(C)c1ccc(N(Cc2ccc(N(C)C)cc2)C(=O)C2CCCc3ccccc32)cc1 (centres unmarked) [Example 4, N-[(4-dimethylaminophenyl)methyl]-N-(4-isopropylphenyl)-1,2,3,4-tetrahydronaphthalene-1-carboxamide]
